Patent US9695155B2, “Herbicidal substituted pyrimidinyloxy benzene compounds” (E. I. DU PONT DE NEMOURS AND COMPANY, priority 2013, dated 2017)

Legend:
leafy spurge = assay: Test F preemergence; type: in vivo, Euphorbia esula; settings: 21 days, scale 0 to 100
Method in brief: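 Greenhouse test: soil (loam with sand) seeded, then sprayed preemergence using a surfactant-containing non-phytotoxic solvent formulation. At day 21, response judged visually relative to controls, where 0 means no effect and 100 means full control.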

wild radish = assay: Test D preemergence; type: in vivo, Raphanus raphanistrum; settings: Raphanus raphanistrum, pre-emergence
Method in brief: (§1)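 After treatment, visual injury versus untreated plants, 0–100 scale, assessed at 7 to 21 days. Applications were made preemergence to silt loam-sown seed and postemergence to seedlings 2–18 cm high in potting medium.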

field violet [1] = assay: Test D postemergence; type: in vivo, Viola arvensis; settings: Viola arvensis, post-emergence, scale 0 to 100 (0 no effect, 100 complete control), read-out: Plant response rating, Field Violet
Method in brief: as §1

bluegrass = assay: Test F preemergence; type: in vivo, Poa annua; settings: 21 days, scale 0 to 100
Description: (§2) Seeds of plant species selected from bermudagrass (Cynodon dactylon), surinam grass (Brachiaria decumbens), large (Lg) crabgrass (Digitaria sanguinalis), crabgrass, naked (naked crabgrass, Digitaria nuda), foxtail, green (green foxtail, Setaria viridis), johnsongrass (Sorghum halepense), kochia (Kochia scoparia), morningglory (pitted morningglory, Ipomoea lacunosa), nutsedge, purple (purple nutsedge, Cyperus rotundus), ragweed (common ragweed, Ambrosia elatior), mustard, black (black mustard, Brassica nigra), guineagrass (Panicum maximum), dallisgrass (Paspalum dilatatum), barnyardgrass (Echinochloa crus-galli), sandbur (southern sandbur, Cenchrus echinatus), sowthistle (common sowthistle, Sonchus oleraceous), Italian ryegrass (Lolium multiflorum), signalgrass (broadleaf signalgrass, Brachiaria platyphylla), dayflower (Virginia (VA) dayflower, Commelina virginica), bluegrass (annual bluegrass, Poa annua), quackgrass (Elytrigia repens), mallow (common mallow, Malva sylvestris), buckwheat, wild (wild buckwheat, Polygonum convolvulus), leafy spurge (Euphorbia esula), chickweed (common chickweed, Stellaria media), wild poinsettia (Euphorbia heterophylla), and pigweed (Amaranthus retroflexus) were planted into a blend of loam soil and sand and treated preemergence with test chemicals formulated in a non-phytotoxic solvent mixture which included a surfactant.
(§3) Treated plants and controls were maintained in a greenhouse for 21 days, after which time all species were compared to controls and visually evaluated. Plant response ratings, summarized in Table F, are based on a scale of 0 to 100 where 0 is no effect and 100 is complete control. A dash (-) response means no test result.

winter wheat [2] = assay: Test D postemergence; type: in vivo, Triticum aestivum; settings: Triticum aestivum, post-emergence
Method in brief: as §1

spring wheat [3] = assay: Test D postemergence; type: in vivo, Triticum aestivum; settings: Triticum aestivum, post-emergence
Method in brief: as §1

oilseed rape = assay: Test D postemergence; type: in vivo, Brassica napus; settings: Brassica napus, post-emergence
Method in brief: as §1

field violet [4] = assay: Test D preemergence; type: in vivo, Viola arvensis; settings: Viola arvensis, pre-emergence
Method in brief: as §1

winter wheat [5] = assay: Test D preemergence; type: in vivo, Triticum aestivum; settings: Triticum aestivum, pre-emergence
Method in brief: as §1

spring wheat [6] = assay: Test D preemergence; type: in vivo, Triticum aestivum; settings: Triticum aestivum, pre-emergence
Method in brief: as §1

pigweed = assay: Test D postemergence; type: in vivo, Amaranthus retroflexus; settings: Amaranthus retroflexus, post-emergence
Method in brief: as §1

wild poinsettia = assay: Test F preemergence; type: in vivo, Euphorbia heterophylla; settings: 21 days, scale 0 to 100
Description: as §2, §3

wild oat = assay: Test D preemergence; type: in vivo, Avena fatua; settings: Avena fatua, pre-emergence
Method in brief: as §1

Question: How did the “Plant response rating, Leafy Spurge” value (leafy spurge; 16 g ai/ha) turn out when N#Cc1cccc(Oc2ncc(Cl)cn2)c1-n1cc(OCC(F)(F)F)cn1 [Compound 274, 3-[(5-chloro-2-pyrimidinyl)oxy]-2-[4-(2,2,2-trifluoroethoxy)-1H-pyrazol-1-yl]benzonitrile] was run?
Answer: 100

Question: And the “Plant response rating, Leafy Spurge” value (leafy spurge; 31 g ai/ha)?
Answer: 98

Question: And the “Plant response rating, Leafy Spurge” value (leafy spurge; 62 g ai/ha)?
Answer: 100

Question: What about the “Plant response rating, Leafy Spurge” value (leafy spurge; 125 g ai/ha) of the same compound?
Answer: 100

Question: What about the “Plant response rating, Leafy Spurge” value (leafy spurge; 250 g ai/ha) of the same compound?
Answer: 100

Question: And the pest or weed control at 16 g/ha (wild radish; 16 g ai/ha, scale 0 (no effect) to 100 (complete control), read-out: Plant response rating, Radish, Wild)?
Answer: 5%

Question: And the pest or weed control at 31 g/ha (wild radish; 31 g ai/ha, scale 0 (no effect) to 100 (complete control), read-out: Plant response rating, Radish, Wild)?
Answer: 5%

Question: What about the pest or weed control at 125 g/ha (wild radish; 125 g ai/ha, scale 0-100, read-out: Plant response rating, Radish, Wild) of the same compound?
Answer: 85%

Question: What about the pest or weed control at 31 g/ha (field violet [1]; 31 g ai/ha) of the same compound?
Answer: 75%

Question: What about the pest or weed control at 62 g/ha (field violet [1]; 62 g ai/ha) of the same compound?
Answer: 70%

Question: And the pest or weed control at 125 g/ha (field violet [1]; 125 g ai/ha)?
Answer: 85%

Question: And the “Plant response rating, Bluegrass” value (bluegrass; 16 g ai/ha)?
Answer: 0

Question: What about the “Plant response rating, Bluegrass” value (bluegrass; 31 g ai/ha) of the same compound?
Answer: 20

Question: And the “Plant response rating, Bluegrass” value (bluegrass; 62 g ai/ha)?
Answer: 50

Question: And the “Plant response rating, Bluegrass” value (bluegrass; 125 g ai/ha)?
Answer: 85

Question: What about the “Plant response rating, Bluegrass” value (bluegrass; 250 g ai/ha) of the same compound?
Answer: 100

Question: And the plant injury at 16 g/ha (winter wheat [2]; 16 g ai/ha, scale 0-100, read-out: Plant response rating, Wheat, Winter)?
Answer: 10%

Question: What about the plant injury at 31 g/ha (winter wheat [2]; 31 g ai/ha, scale 0 to 100 (0 no effect, 100 complete control), read-out: Plant response rating, Wheat, Winter) of the same compound?
Answer: 20%

Question: What about the plant injury at 62 g/ha (winter wheat [2]; 62 g ai/ha, scale 0 to 100 (0 no effect, 100 complete control), read-out: Plant response rating, Wheat, Winter) of the same compound?
Answer: 20%

Question: And the plant injury at 125 g/ha (winter wheat [2]; 125 g ai/ha, scale 0 to 100 (0 no effect, 100 complete control), read-out: Plant response rating, Wheat, Winter)?
Answer: 30%

Question: And the plant injury at 16 g/ha (spring wheat [3]; 16 g ai/ha, scale 0-100, read-out: Plant response rating, Wheat, Spring)?
Answer: 10%

Question: What about the plant injury at 31 g/ha (spring wheat [3]; 31 g ai/ha, scale 0 to 100 (0 no effect, 100 complete control), read-out: Plant response rating, Wheat, Spring) of the same compound?
Answer: 15%

Question: What about the plant injury at 62 g/ha (spring wheat [3]; 62 g ai/ha, scale 0 to 100 (0 no effect, 100 complete control), read-out: Plant response rating, Wheat, Spring) of the same compound?
Answer: 15%

Question: And the plant injury at 125 g/ha (spring wheat [3]; 125 g ai/ha, scale 0 to 100 (0 no effect, 100 complete control), read-out: Plant response rating, Wheat, Spring)?
Answer: 25%

Question: What about the plant injury at 16 g/ha (oilseed rape; 16 g ai/ha, scale 0-100, read-out: Plant response rating, Oilseed Rape) of the same compound?
Answer: 40%

Question: What about the plant injury at 31 g/ha (oilseed rape; 31 g ai/ha, scale 0 to 100 (0 no effect, 100 complete control), read-out: Plant response rating, Oilseed Rape) of the same compound?
Answer: 55%

Question: What about the plant injury at 62 g/ha (oilseed rape; 62 g ai/ha, scale 0 to 100 (0 no effect, 100 complete control), read-out: Plant response rating, Oilseed Rape) of the same compound?
Answer: 65%

Question: What about the plant injury at 125 g/ha (oilseed rape; 125 g ai/ha, scale 0 to 100 (0 no effect, 100 complete control), read-out: Plant response rating, Oilseed Rape) of the same compound?
Answer: 75%

Question: What about the pest or weed control at 16 g/ha (field violet [4]; 16 g ai/ha, scale 0 (no effect) to 100 (complete control), read-out: Plant response rating, Field Violet) of the same compound?
Answer: 75%

Question: And the pest or weed control at 31 g/ha (field violet [4]; 31 g ai/ha, scale 0-100, read-out: Plant response rating, Field Violet)?
Answer: 100%

Question: What about the pest or weed control at 62 g/ha (field violet [4]; 62 g ai/ha, scale 0-100, read-out: Plant response rating, Field Violet) of the same compound?
Answer: 100%

Question: And the pest or weed control at 125 g/ha (field violet [4]; 125 g ai/ha, scale 0-100, read-out: Plant response rating, Field Violet)?
Answer: 100%

Question: What about the plant injury at 16 g/ha (winter wheat [5]; 16 g ai/ha, scale 0 (no effect) to 100 (complete control), read-out: Plant response rating, Wheat, Winter) of the same compound?
Answer: 0%

Question: What about the plant injury at 31 g/ha (winter wheat [5]; 31 g ai/ha, scale 0 (no effect) to 100 (complete control), read-out: Plant response rating, Wheat, Winter) of the same compound?
Answer: 0%

Question: And the plant injury at 125 g/ha (winter wheat [5]; 125 g ai/ha, scale 0-100, read-out: Plant response rating, Wheat, Winter)?
Answer: 35%

Question: And the plant injury at 16 g/ha (spring wheat [6]; 16 g ai/ha, scale 0 (no effect) to 100 (complete control), read-out: Plant response rating, Wheat, Spring)?
Answer: 0%

Question: What about the plant injury at 31 g/ha (spring wheat [6]; 31 g ai/ha, scale 0 (no effect) to 100 (complete control), read-out: Plant response rating, Wheat, Spring) of the same compound?
Answer: 0%

Question: And the plant injury at 125 g/ha (spring wheat [6]; 125 g ai/ha, scale 0-100, read-out: Plant response rating, Wheat, Spring)?
Answer: 55%

Question: What about the pest or weed control at 16 g/ha (pigweed; 16 g ai/ha, scale 0-100, read-out: Plant response rating, Pigweed) of the same compound?
Answer: 75%

Question: What about the pest or weed control at 31 g/ha (pigweed; 31 g ai/ha, scale 0 to 100 (0 no effect, 100 complete control), read-out: Plant response rating, Pigweed) of the same compound?
Answer: 95%

Question: And the pest or weed control at 62 g/ha (pigweed; 62 g ai/ha, scale 0 to 100 (0 no effect, 100 complete control), read-out: Plant response rating, Pigweed)?
Answer: 95%

Question: And the pest or weed control at 125 g/ha (pigweed; 125 g ai/ha, scale 0 to 100 (0 no effect, 100 complete control), read-out: Plant response rating, Pigweed)?
Answer: 95%

Question: What about the “Plant response rating, Poinsettia, Wild” value (wild poinsettia; 16 g ai/ha) of the same compound?
Answer: 5

Question: And the “Plant response rating, Poinsettia, Wild” value (wild poinsettia; 31 g ai/ha)?
Answer: 10

Question: What about the “Plant response rating, Poinsettia, Wild” value (wild poinsettia; 62 g ai/ha) of the same compound?
Answer: 70

Question: What about the “Plant response rating, Poinsettia, Wild” value (wild poinsettia; 125 g ai/ha) of the same compound?
Answer: 95

Question: What about the “Plant response rating, Poinsettia, Wild” value (wild poinsettia; 250 g ai/ha) of the same compound?
Answer: 100

Question: And the pest or weed control at 16 g/ha (wild oat; 16 g ai/ha, scale 0 (no effect) to 100 (complete control), read-out: Plant response rating, Oat, Wild)?
Answer: 0%

Question: What about the pest or weed control at 31 g/ha (wild oat; 31 g ai/ha, scale 0-100, read-out: Plant response rating, Oat, Wild) of the same compound?
Answer: 0%

Question: What about the pest or weed control at 62 g/ha (wild oat; 62 g ai/ha, scale 0-100, read-out: Plant response rating, Oat, Wild) of the same compound?
Answer: 15%

Question: What about the pest or weed control at 125 g/ha (wild oat; 125 g ai/ha, scale 0-100, read-out: Plant response rating, Oat, Wild) of the same compound?
Answer: 25%
